Columns and labels:
[1] = cited from earlier work
SCCVII cells = assay: Growth inhibition of SCCVII cells by 5-FC or 5-FU with or without cell extract from recombinant C. sporogenes
Experimental: The function of the C. sporogenes-derived cytosine deaminase was tested by assaying its ability to convert the nontoxic 5-fluorocytosine (5-FC) to the toxic 5-fluorouracil (5-FU).

Walker carcinoma cells = conditions: cited from earlier work
[2] = tested on: mouse and human tumor cell lines; conditions: cited from earlier work
SCCVII tumor cells = assay: Cell killing of SCCVII cells exposed to CB1954, NADH and supernatant from wild type or recombinant C. acetobutylicum (colony growth); conditions: 2 hr incubation, NADH 500 μM
Experimental: The ability of recombinant C. acetobutylicum to activate CB1954 was also tested in vitro, also as described in Example 1. Briefly, recombinant and wild type C. acetobutylicum were inoculated into medium, and after overnight incubation, the cultures were centrifuged and the supernatant collected. The supernatant was added to cultures of SCCVII tumor cells, along with addition of various concentrations of CB1954 in DMSO. After incubation for two hours, the cells were counted by hemocytometer, and appropriate dilutions plated and incubated for colony growth.
In order to test the ability of recombinant C. acetobutylicum to activate CB1954, recombinant and wild type C. acetobutylicum were inoculated into 20 ml of medium. After overnight incubation, the cultures were centrifuged and the supernatant collected and diluted 1:3 with Waymouth's growth medium. […] To these cultures, different concentrations of CB1954 in DMSO were added, and the amount of DMSO adjusted in all of the cultures (including the controls) to 1% DMSO. Controls consisted of cell culture with only the supernatant/cell culture medium mixture. […]
After a 2 hr incubation in air at 37° C., the medium was removed, all the plates were washed 3 times with PBS, trypsinized, the cells counted by hemocytometer, and appropriate dilutions plated and incubated for 10 days in a 5% CO2 incubator at 370 C for colony growth.

Walker 256 rat carcinoma = conditions: cited from earlier work
[3] = molecular target: nitroreductase enzyme from E. coli (Escherichia coli, UniProt P38489); conditions: cited from earlier work
nitroreductase enzyme from E. coli, sequence (P38489 whole entry): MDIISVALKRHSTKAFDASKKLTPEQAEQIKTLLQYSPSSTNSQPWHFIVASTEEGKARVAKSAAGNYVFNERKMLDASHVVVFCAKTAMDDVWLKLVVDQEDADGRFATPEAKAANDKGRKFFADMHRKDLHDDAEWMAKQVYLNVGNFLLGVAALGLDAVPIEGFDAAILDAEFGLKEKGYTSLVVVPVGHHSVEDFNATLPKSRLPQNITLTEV

[4] = prodrug alone; cited from earlier work
[5] = tested on: human breast and ovarian cancer cells; conditions: cited from earlier work

Compound: O=C(O)[C@H]1O[C@@H](n2cc(F)c(=O)[nH]c2=O)[C@H](O)[C@@H](O)[C@@H]1O [1-N-β-glucuronide of 5-fluorouracil]
- stability in vivo [1]: stable in vivo

Compound: Nc1nc(=O)[nH]cc1F [5-FC, 5-fluorocytosine]
- effect of cell extract from C. sporogenes transformed with an empty vector on sensitivity (SCCVII cells): did not affect the sensitivity
- toxicity of 5-FC plus cell extract from recombinant C. sporogenes compared with 5-FU (SCCVII cells): same toxicity as 5-FU
- increase in cytotoxicity of 5-FC by cell extract from recombinant C. sporogenes expressing cytosine deaminase (factor) (SCCVII cells; cell extract 5, 10, 20 μg/ml): 10^4

Compound: O=c1[nH]cc(F)c(=O)[nH]1 [5-FU, 5-fluorouracil]
- effect of cell extract from recombinant C. sporogenes on sensitivity to 5-FU (SCCVII cells): nor did cell extract from recombinant C. sporogenes affect sensitivity to 5-FU

Compound: NC(=O)c1cc(N2CC2)c([N+](=O)[O-])cc1[N+](=O)[O-] [CB1954, 5-[aziridine-1-yl]-2,4-dinitrobenzamide]
- activity on Walker carcinoma cells in vitro (Walker carcinoma cells): potent activity
- activity against a range of mouse and human tumor cell lines [2]: poor activity
- difference in sensitivity between rat and human cells (factor) [2]: 10^4-10^5
- enhancement of the toxicity of CB1954 by supernatant from transformed C. acetobutylicum (SCCVII tumor cells): approximately 10 fold
- activity against Walker 256 rat carcinoma in vivo (Walker 256 rat carcinoma): potent activity
- rate of reduction of CB1954 relative to that of the rat DT diaphorase [3]: 60 times

Compound: butylated ammonium salt of the glucuronide conjugate of hydroxyanaline mustard
- potency relative to hydroxyanaline mustard (times less potent) [4]: 10^3 times

Compound: glucuronide conjugate of epirubicin
- toxicity when combined with a Mab-β-glucuronidase conjugate [5]: as toxic as epirubicin
- toxicity of the prodrug (fold less toxic) ([5]; prodrug alone): approximately 100 fold
